Laboratory results from patent US11702419B2, “Heterocyclic compound and use thereof” (Takeda Pharmaceutical Company Limited, priority 2018, dated 2023).

Experiments:
[1] = molecular target: T1, hERG channel (Homo sapiens, UniProt Q12809); experiment: hERG manual patch-clamp assay; assay type: cell-based; conditions: 10 μmol/L test solution; hERG peak tail current 3 to 5 min after application, HEK293 cells
T1 construct: Medicine
Description: hERG Manual Patch-Clamp Assay
In order to confirm “hERG channel inhibitory activity” which the compound of the present invention has, the hERG channel inhibitory activity was evaluated using human Ether-a-go-go-Related Gene (hERG)-expressing human embryonic kidney 293 (HEK293) cells.
hERG-stably expressing HEK293 cells were purchased from University of Wisconsin-Madison Dept. Medicine. The cells were cultured in a medium prepared by adding 10% FBS (fetal bovine serum, Life Technologies Corporation), sodium pyruvate (1 mmol/L; Life Technologies Corporation), MEM Non-Essential Amino Acid (1×; Life Technologies Corporation), 100 units/mL penicillin, 100 μg/mL streptomycin (Life Technologies Corporation) and 400 μg/mL G 418 (Geneticin, Sigma-Aldrich Co. LLC.) to Minimum Essential Medium (Sigma-Aldrich Co. LLC.) at 37° C., 5% CO2. The cultured cells were detached, suspended in a medium, and seeded on a cover glass, cultured, and used in a patch-clamp assay. […]
The hERG current passing through whole cell membranes under voltage-clamp was recorded by whole-cell patch-clamp method. […] During measurement, the extracellular fluid temperature in the chamber was set at 20 to 25° C., and the hERG current was measured using patch-clamp amplifier (Axopatch-200B, Molecular Devices, LLC). The obtained electrical signal was recorded on a computer via patch-clamp record and analysis software (pCLAMP 10, Molecular Devices, LLC). The absolute value of the hERG current value (peak tail current) was calculated based on the current value when depolarizing pulse at −50 mV, 110 msec was given, and the change (inhibitory rate) in the hERG current value (peak tail current) 3 to 5 min after the application of the 10 μmol/L test solution relative to before the application was calculated.

[2] = test system: NMDA receptor containing the NR2B subunit (hippocampus); experiment: [3H]MK-801 binding test in vivo; parameters: species or system Sprague Dawley rats; conditions: [3H]MK-801 binding inhibitory rate, rat hippocampus
Description: [^3H]MK-801 Binding Test In Vivo
In order to confirm “functional antagonistic action on an NMDA receptor containing the NR2B subunit in vivo” which the compound of the present invention has, binding test was performed using tritium-labeled form of MK-801 ((5R,10S)-5-methyl-10,11-dihydro-5H-5,10-epiminodibenzo[a,d][7]annulene) ([^3H]MK-801), which is a compound capable of binding to the opening site of the NMDA receptor.
The example compound (3 mg/kg/2 mL, 0.5% MC water) or vehicle ([…], 0.5% MC water) was orally administered (p.o.) to Sprague Dawley rats (body weight 180-260 g). After a certain time (around after time-to maximum blood concentration), [^3H]MK-801 (20 μCi/kg/mL, Muromachi Kikai) was intravenously administered. After 10 min, the rats were euthanized by decapitation, and subjected to craniotomy, and the hippocampus was collected. The collected hippocampus was homogenized in 30 volumes (30 mL per 1 g tissue) ice-cooled 20 mM Hepes (pH7.5, Hampton Research) using a homogenizer (T10 basic Ultra-Turrax) for 10 sec. […] The filter was washed four times with ice-cooled saline (5 mL, Otsuka Pharmaceutical), put into a scintillation vial, and then 10 mL of liquid scintillator A (FUJIFILM Wako Pure Chemical Corporation) was added thereto, and the residual radioactivity was counted using liquid scintillation counter (ALOKA LSC-6100). Separately, the residual radioactivity in 100 μL of the homogenate before the filtration was counted in the same way. The value of [the residual radioactivity in the filter/the residual radioactivity in the 100 μL of the homogenate] was calculated as a [^3H]MK-801 binding rate to the NMDA receptor expressing in each individual hippocampus tissue. […] The difference between the percentage of [^3H]MK-801 binding rate in the group orally administered with the example compound and that in the vehicle control group (100%) was analyzed as [^3H]MK-801 binding inhibitory rate by the example compound.

[3] = molecular target: T2, NMDA receptor composed of four subunits consisting of two sets of heterodimers of NR1 and NR2B (human GRIN1 and GRIN2B-expressing HEK293 cells) (Homo sapiens, UniProt Q13224); experiment: NR2B Ca2+ influx assay; assay type: cell-based; conditions: 10 μM compound, glutamic acid/glycine-induced Ca2+ influx, FLIPR, read-out: inhibitory rate (10 μM compound concentration)
T2 construct: host or cells: HEK293 (tetracycline-inducible expression)
Outline: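 HEK293 cells expressing human GRIN1/GRIN2B were induced with tetracycline (diluted to 2 µg/mL) for 2 h, then Fluo-4AM loaded (2.5 µM) in pH 7.2 buffer with 1.8 mM CaCl2. Compound at 10 µM final was preincubated 15 min at room temperature, then challenged with buffer containing 30 µM glutamate/30 µM glycine. FLIPR fluorescence was read every 3 s for 5 min, with % inhibition from cumulative signal and agonist-free wells set as 100%.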

[4] = in vivo; cited from earlier work
[5] = in vivo; cited from earlier work; remark: listed apart in the source
[6] = single intravenous administration; major depression and bipolar disorder; cited from earlier work
[7] = rodents; number of occurrence and depth; cited from earlier work
[8] = continuous intravenous administration; cited from earlier work

T1 sequence (Q12809 whole entry): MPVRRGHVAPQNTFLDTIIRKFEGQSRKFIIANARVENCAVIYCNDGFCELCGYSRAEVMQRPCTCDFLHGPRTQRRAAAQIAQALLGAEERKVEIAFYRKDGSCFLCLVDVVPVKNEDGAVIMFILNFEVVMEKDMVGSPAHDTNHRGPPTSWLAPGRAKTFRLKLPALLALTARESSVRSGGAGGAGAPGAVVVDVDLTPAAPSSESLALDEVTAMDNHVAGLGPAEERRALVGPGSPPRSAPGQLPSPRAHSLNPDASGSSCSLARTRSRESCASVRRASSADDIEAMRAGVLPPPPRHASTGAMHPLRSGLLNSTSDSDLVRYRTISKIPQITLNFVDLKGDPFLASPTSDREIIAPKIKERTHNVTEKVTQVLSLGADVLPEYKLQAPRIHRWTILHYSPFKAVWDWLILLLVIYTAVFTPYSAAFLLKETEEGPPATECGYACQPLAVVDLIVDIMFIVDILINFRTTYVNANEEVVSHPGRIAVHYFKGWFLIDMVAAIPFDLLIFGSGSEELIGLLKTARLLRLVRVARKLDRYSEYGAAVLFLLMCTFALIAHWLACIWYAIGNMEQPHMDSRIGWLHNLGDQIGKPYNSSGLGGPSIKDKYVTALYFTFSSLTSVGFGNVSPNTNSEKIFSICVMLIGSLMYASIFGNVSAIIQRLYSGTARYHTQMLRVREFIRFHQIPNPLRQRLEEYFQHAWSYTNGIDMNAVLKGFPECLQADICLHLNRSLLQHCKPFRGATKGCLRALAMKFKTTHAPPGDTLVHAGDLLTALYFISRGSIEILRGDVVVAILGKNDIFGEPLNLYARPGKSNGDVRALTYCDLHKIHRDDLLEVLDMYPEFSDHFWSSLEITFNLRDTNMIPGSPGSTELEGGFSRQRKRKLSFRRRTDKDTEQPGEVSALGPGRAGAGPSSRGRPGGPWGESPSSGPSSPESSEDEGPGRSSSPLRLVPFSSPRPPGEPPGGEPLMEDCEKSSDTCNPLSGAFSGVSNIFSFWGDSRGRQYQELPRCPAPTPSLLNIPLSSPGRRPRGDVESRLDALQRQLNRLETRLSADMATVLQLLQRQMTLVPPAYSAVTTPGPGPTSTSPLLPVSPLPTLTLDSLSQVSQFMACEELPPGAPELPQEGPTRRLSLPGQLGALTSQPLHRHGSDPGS
T2 sequence (Q13224 27-1484, other chains not shown): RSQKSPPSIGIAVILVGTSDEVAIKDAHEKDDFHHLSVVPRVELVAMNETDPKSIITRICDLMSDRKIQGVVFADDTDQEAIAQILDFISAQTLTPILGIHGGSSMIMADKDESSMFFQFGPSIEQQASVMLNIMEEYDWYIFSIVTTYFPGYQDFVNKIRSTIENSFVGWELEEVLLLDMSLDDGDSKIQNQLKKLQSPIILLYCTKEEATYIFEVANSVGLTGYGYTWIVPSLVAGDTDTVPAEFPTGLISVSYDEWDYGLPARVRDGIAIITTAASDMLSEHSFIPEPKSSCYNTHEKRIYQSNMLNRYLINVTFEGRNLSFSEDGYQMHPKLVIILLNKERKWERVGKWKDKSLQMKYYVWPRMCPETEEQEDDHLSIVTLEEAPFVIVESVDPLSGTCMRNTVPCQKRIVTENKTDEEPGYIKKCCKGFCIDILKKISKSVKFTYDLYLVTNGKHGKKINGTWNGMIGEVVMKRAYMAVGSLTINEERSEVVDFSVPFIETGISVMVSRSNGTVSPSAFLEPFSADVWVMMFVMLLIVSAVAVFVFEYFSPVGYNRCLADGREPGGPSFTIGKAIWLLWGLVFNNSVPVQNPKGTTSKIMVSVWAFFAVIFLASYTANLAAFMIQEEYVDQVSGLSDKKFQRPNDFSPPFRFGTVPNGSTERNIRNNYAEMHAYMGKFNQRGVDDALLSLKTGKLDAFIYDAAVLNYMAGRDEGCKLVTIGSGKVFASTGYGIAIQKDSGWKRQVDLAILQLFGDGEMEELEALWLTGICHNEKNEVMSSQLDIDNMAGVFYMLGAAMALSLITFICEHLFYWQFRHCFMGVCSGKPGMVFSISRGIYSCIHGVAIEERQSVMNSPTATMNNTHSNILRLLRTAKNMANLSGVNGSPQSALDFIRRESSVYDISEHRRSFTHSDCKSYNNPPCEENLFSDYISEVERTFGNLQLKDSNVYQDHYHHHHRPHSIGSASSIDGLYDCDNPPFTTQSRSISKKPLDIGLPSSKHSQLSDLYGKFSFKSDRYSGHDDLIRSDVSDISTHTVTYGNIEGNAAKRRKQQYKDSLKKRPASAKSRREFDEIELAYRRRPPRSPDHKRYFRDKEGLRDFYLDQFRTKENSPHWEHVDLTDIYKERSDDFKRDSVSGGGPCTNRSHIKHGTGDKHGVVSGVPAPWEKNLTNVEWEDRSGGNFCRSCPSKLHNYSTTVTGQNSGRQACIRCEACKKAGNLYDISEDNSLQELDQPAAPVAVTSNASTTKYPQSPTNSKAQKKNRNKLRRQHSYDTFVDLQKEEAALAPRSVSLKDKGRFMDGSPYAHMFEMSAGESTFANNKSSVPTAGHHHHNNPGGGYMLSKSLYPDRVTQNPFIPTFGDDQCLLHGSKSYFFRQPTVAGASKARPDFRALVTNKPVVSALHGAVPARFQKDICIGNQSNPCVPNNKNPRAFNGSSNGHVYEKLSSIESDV

Question: What does the source list for `O=C(NCc1nnn2ccccc12)c1ccc(OC(F)(F)F)c(F)c1` [Example 13, 3-fluoro-N-([1,2,3]triazolo[1,5-a]pyridin-3-ylmethyl)-4-(trifluoromethoxy)benzamide]?
Answer: inhibitory rate (10 μM compound concentration) [1]: 33.2; inhibitory rate (3 mg/kg, p.o.) [2]: 23%; inhibition at 10 µM [3]: 96%

Question: Which “effect on behavioral and psychological symptoms of dementia” value [4] does the source give for `CC12CC3CC(C)(C1)CC(N)(C3)C2` [memantine] here?
Answer: The value was “partially improves behavioral and psychological symptoms of dementia”.

Question: Which “effect on pain threshold” value [5] does the source give for `CC(C(O)c1ccc(O)cc1)N1CCC(Cc2ccccc2)CC1` (stereo not shown) [ifenprodil] here?
Answer: Its value is “increase in pain threshold”.

Question: Which results are given for `O=C(NCc1cnn2ncccc12)c1cnc(OC(F)F)c(F)c1` [Example 6, 6-(difluoromethoxy)-5-fluoro-N-(pyrazolo[1,5-b]pyridazin-3-ylmethyl)nicotinamide]?
Answer: inhibitory rate (10 μM compound concentration) [1]: 16.5; inhibitory rate (3 mg/kg, p.o.) [2]: 33%; inhibition at 10 µM [3]: 97%

Question: With `CNC1(c2ccccc2Cl)CCCCC1=O` (stereo not shown) [ketamine] as the molecule, how does the “effect on depression symptom” value [6] read?
Answer: Its value is “improves depression symptom accompanying major depression and bipolar disorder rapidly and in a sustained manner”.

Question: For `C[C@@H](CN1CCC(Cc2ccccc2)CC1)[C@@H](O)c1ccc(O)cc1` [Ro25-6981], which “effect on cortical spreading depression” value [7] is on record?
Answer: The value was “suppress the number of occurrence and the depth of cortical spreading depression”.

Question: Which results are given for `Cn1ccn2ncc(CNC(=O)c3cnc(OC(F)F)c(F)c3)c12` [Example 58, 6-(difluoromethoxy)-5-fluoro-N-((1-methyl-1H-imidazo[1,2-b]pyrazol-7-yl)methyl)nicotinamide]?
Answer: inhibitory rate (10 μM compound concentration) [1]: 13.6; inhibitory rate (3 mg/kg, p.o.) [2]: 27%; inhibition at 10 µM [3]: 97%

Question: For `C[C@@H]([C@@H](O)c1ccc(O)cc1)N1CCC(O)(c2ccccc2)CC1` [CP-101,606], which “effect on cortical spreading depression” value [7] is on record?
Answer: The value was “suppress the number of occurrence and the depth of cortical spreading depression”.

Question: And the “effect on treatment resistant-depression symptom” value [8]?
Answer: Its value is “significantly improves treatment resistant-depression symptom”.

Question: For `Cc1nn2ncccc2c1CNC(=O)c1ccc(OC(F)(F)F)c(F)c1` [Example 10, 3-fluoro-N-((2-methylpyrazolo[1,5-b]pyridazin-3-yl)methyl)-4-(trifluoromethoxy)benzamide], which inhibition at 10 µM [3] is on record?
Answer: Its inhibition at 10 µM is 97%.
